In one series the target is T1, Rb:Raf-1 binding (Homo sapiens, UniProt P06400).
T1 construct: a glutathione S-transferase (GST) Raf-1 (1-149aa) overnight at 4° C; made in house
T1 sequence (P06400 1-928): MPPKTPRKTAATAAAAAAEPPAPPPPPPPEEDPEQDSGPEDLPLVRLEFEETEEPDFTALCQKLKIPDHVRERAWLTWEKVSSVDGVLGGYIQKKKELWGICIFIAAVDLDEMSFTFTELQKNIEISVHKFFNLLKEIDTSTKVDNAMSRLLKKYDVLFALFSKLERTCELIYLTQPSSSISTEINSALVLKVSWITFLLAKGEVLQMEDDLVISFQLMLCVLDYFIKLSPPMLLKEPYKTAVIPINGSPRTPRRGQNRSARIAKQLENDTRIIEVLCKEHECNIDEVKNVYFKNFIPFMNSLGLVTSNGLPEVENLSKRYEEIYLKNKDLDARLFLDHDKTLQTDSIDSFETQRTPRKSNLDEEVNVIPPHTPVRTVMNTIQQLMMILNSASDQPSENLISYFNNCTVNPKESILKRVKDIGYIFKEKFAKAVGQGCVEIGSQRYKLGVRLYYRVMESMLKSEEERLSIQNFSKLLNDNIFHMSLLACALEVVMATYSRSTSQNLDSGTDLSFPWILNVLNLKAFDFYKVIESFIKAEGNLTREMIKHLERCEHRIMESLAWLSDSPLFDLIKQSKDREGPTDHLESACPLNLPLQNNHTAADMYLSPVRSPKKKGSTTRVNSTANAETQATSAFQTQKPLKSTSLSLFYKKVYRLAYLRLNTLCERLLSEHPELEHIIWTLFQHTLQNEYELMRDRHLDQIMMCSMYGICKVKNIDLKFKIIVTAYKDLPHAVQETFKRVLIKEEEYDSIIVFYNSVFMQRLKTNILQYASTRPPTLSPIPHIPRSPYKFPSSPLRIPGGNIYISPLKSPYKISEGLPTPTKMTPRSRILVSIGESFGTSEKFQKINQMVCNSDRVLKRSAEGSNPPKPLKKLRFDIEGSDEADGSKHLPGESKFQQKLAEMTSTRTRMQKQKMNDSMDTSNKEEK
The experiment in a line: GST-Rb/GST-Raf-1 ELISA, inhibition of Rb:Raf-1 binding. On the procedure: Cell culture and transfection. The human promyelocytic leukemia cell line U937 was cultured in RPMI (Mediatech, Hernden, Va.) containing 10% fetal bovine serum (FBS; Mediatech). U2-OS, Saos-2, MCF7, PANC1 and MDA-MB-231 cell lines were cultured in Dulbecco modified Eagle Medium (DMEM; Mediatech) containing 10% FBS. A549 cells and A549 shRNA Rb cell lines were maintained in Ham F-12K supplemented with 10% FBS. ShRNA cells lines were maintained in media containing 0.5 μg/mL puromycin. H1650, PC-9 and Aspc1 cell line were cultured in RPMI (Gibco/Invitrogen, Carlsbad, Calif.) containing 10% FBS. PANC1 and CAPAN2 pancreatic cell lines and the A375 Melanoma cell line was grown in DMEM supplemented with 10% FBS. Human aortic endothelial cells (HAECs, Clonetics, San Diego, Calif.) were cultured in endothelial growth medium, supplemented with 5% FBS, according to the manufacturer's instructions. U251MG and U87MG glioma cell lines were maintained in DMEM supplemented with non-essential amino acids, […] β-mercaptoethanol, and 10% FBS. ShRNA cell lines were made by stably transfecting A549 cells with two different shRNA constructs that specifically target Rb obtained from a library. The adenovirus (Ad) constructs Ad-green fluorescent protein (GFP) and Ad-E2F1 were obtained from W. D. Cress. Ad-cyclin D was provided by I. Cozar-Castellano. In vitro library screening assays. Enzyme Linked ImmunoSorbent Assay (ELISA) 96-well plates were coated with 1 μg/mL of a glutathione S-transferase (GST) Raf-1 (1-149aa) overnight at 4° C. […] GST-Rb +/− compounds were then added to the plate and incubated for 90 minutes (min) at 37° C. The amount of Rb bound to Raf-1 was detected by Rb polyclonal antibody (Santa Cruz Biotechnology, Santa Cruz, Calif.) 1:1000 incubated for 60 min at 37° C. Donkey-anti-rabbit-IgG-HRP (1:10,000) was added to the plate and incubated at 37° C. for 60 minutes. The color was developed with orthophenylenediamine (Sigma, St. Louis, Mo.) and the reaction was terminated with 3 molar (M) H2SO4. Absorbance was read at 490 nanometers (nm). To determine disruption of Rb to E2F1, Phb, or HDAC1 the above protocol was used with the exception of coating GST Rb on the ELISA plate and adding the drugs in the presence or absence of GST E2F1, Phb, or HDAC1. E2F1 monoclonal antibody (1:2000) was used to detect the amount of Rb bound to E2F1. Prohibition monoclonal antibody was used at 1:1000 to detect the amount of Rb bound to Prohibition. For disruption of MEK-Raf-1 binding ELISAs, Raf-1 1 microgram/milliliter (μg/mL) was coated on the plate and GST-MEK (20 μg/mL) was incubated +/− the compounds for 30 minutes at room temperature. Mek1 polyclonal antibody was used at 1:1000 to detect the binding of Raf-1 to Mek1. The IC50 concentrations for the Rb:Raf-1 inhibitors were determined by plotting with Origin 7.5 software (Origin, Northampton, Mass.). In vitro binding assays. Glutathione S-transferase (GST) fusion of Rb, Raf-1, E2F1, and MEK1 have been previously described (Dasgupta P, Sun J, Wang S, et al. Mol Cell Biol 2004; 24(21):9527-9541). First, 200 micrograms (pig) of U937 asynchronous lysates were pre-incubated with 10 μM of the indicated drugs or 1 μM of the Raf-1 peptide for 30 minutes at 4° C. Next, 200 μg of the U937 lysates were incubated with glutathione beads carrying an equal amount of the GST fusion proteins in 200 μl of protein binding buffer (20 mM Tris [pH 7.5], 50 mM KCL, 0.5 mM EDTA, 1 mM dithiothreitol, 0.5% NP-40, 3 mg of bovine serum albumin/mL) at 4° C. for 2 h. (Wang S, Ghosh R, Chellappan S. Mol Cell Biol 1998; 18(12):7487-7498). Matrigel Assays. Matrigel (Collaborative Biomedical Products) was used to promote the differentiation of HAECs into capillary tube-like structures (Dasgupta P, Sun J, Wang S, et al. Mol Cell Biol 2004; 24(21):9527-9541). A total of 100 μl of thawed Matrigel was added to 96-well tissue culture plates, followed by incubation at 37° C. for 60 minutes to allow polymerization. […]

Series [1] has as its system A549 cells lacking Raf-1 (sh-13B). Description: BrdU incorporation, A549 cells lacking Raf-1. Particulars: 20 μM. It counts as cell-based, human. How it is done:
A549 cells lacking Raf-1 (sh-13B) were generated by stably transfecting a shRNA to Raf-1. Control cells were generated by stably transfecting A549 cells with a control shRNA. The cells were incubated in the presence or absence of compounds 3a, 10b and 10c (20 μM) and S-phase entry was assessed by measuring BrdU incorporation. Relative to controls incubated in the absence of compound, proliferation of the cells with control shRNA (having Raf-1) was inhibited by each of the compounds. In contrast, proliferation of the cells lacking Raf-1 (the cells transfected with Raf-inhibitory shRNA) was not inhibited by the compound. This experiment provides evidence that inhibition of cell proliferation by compounds of the invention is mediated by Raf-1 […].

Where [2] appears, read: class symbol **, 20 μM, read-out: Inhibition at 10 μM or 20 μM.
[3] abbreviates: read-out: inhibition of the Rb:Raf-1 interaction.
[4] abbreviates: at 20 μM, read-out: Inhibition at 10 μM or 20 μM.
Where [5] appears, read: first value of cell, concentration not printed (head: 10 μM), read-out: Inhibition at 10 μM or 20 μM.
Where [6] appears, read: class symbols, 10 μM, read-out: % Inhibition at 10 or 20 μM.

Here are results for 18 compounds from US20100184851A1, “INHIBITION OF CELL PROLIFERATION” (priority 2008, published 2010).

Counter-ions that a name gives are not always drawn. Like-named read-outs stand apart in the source and are kept apart here.

`Cl.N=C(N)NC(=N)SCc1ccc(F)cc1Cl` [Compound 10a, (2-Chloro-4-fluorophenyl)methyl Amidinoisothiourea Hydrochloride] came in with a melting point of 154 to 156 °C. Also, the inhibition at 20 µM on Rb:Raf-1 binding (setting [2]) is 50 to 100%.

`N=C(N)SCc1ccc(Cl)cc1Cl` [Compound 1, reference compound]: at Rb:Raf-1 binding (setting [3]), the inhibition at 20 µM amounted to 100%.

Consider `N=C(N)NC(=N)SCc1ccc(Cl)c(F)c1` [Compound 10i, (4-Chloro-3-fluorophenyl)methyl Amidinoisothiourea Hydrochloride], for which, on Rb:Raf-1 binding (setting [4]), the inhibition at 20 µM was determined as 42%. Besides, the inhibition at 10 µM at Rb:Raf-1 binding (setting [5]) amounted to 6%.

For the compound `N=C(N)NC(=N)SCc1c(F)cccc1F` [Compound 10j, (2,6-Difluorophenyl)methyl Amidinoisothiourea Hydrochloride], the inhibition at 20 µM at Rb:Raf-1 binding (setting [2]) fell in the range of 50 to 100%.

For `N=C(N)NC(=N)SCc1cc2c(cc1Cl)OCO2` [Compound 10h, (6-Chlorobenzo[d][1,3-dioxol-5-yl)methyl Amidinoisothiourea Hydrochloride], on Rb:Raf-1 binding (setting [2]), the inhibition at 20 µM is 50 to 100%.

Regarding `N=C(N)NC(=N)SCc1c(F)cccc1Cl` [Compound 10g, (2-Chloro-6-fluorophenyl)methyl Amidinoisothiourea Hydrochloride], at Rb:Raf-1 binding (setting [2]), the inhibition at 20 µM is 50 to 100%.

Compound `Cl.N=C(N)NC(=N)SCc1ccc2ccccc2c1Br` [Compound 11b, 2-(1-Bromonaphthyl)methyl amidinoisothiourea hydrochloride] displayed a melting point of 160 to 162 °C. Further, the inhibition at 10 µM on Rb:Raf-1 binding (read-out: Inhibition at 10 μM) is 50 to 100%.

For `N=C(N)SCc1ccc(F)cc1F` [Compound 3w, (2,4-Difluorophenyl)methyl isothiourea Hydrochloride], on Rb:Raf-1 binding (setting [6]), the inhibition at 10 µM lay within 50 to 100%.

Consider `N=C(N)NC(=N)SCc1cc(Cl)ccc1Cl` [Compound 10f, (2,5-Dichlorophenyl)methyl Amidinoisothiourea Hydrochloride], for which the inhibition at 20 µM at Rb:Raf-1 binding (setting [2]) lay in the range of 50 to 100%.

In turn, `Cl.N=C(N)NC(=N)SCc1ccc2ccccc2c1` [Compound 11a, (2-Naphthyl)methyl Amidinoisothiourea hydrochloride] had a melting point of 175 to 177 °C. Further, the inhibition at 10 µM at Rb:Raf-1 binding (read-out: Inhibition at 10 μM) lay in the range of 50 to 100%.

In the case of `Cl.N=C(N)NC(=N)SCc1ccc(Cl)cc1[N+](=O)[O-]` [Compound 10d, (2-Nitro-4-chlorophenyl)methyl Amidinoisothiourea Hydrochloride], the melting point was 183 to 185 °C. Besides, the inhibition at 10 µM on Rb:Raf-1 binding (class symbol +, 10 μM, read-out: Inhibition at 10 μM or 20 μM) was in the range of 25 to 50%.

`Cl.N=C(N)NC(=N)SCc1ccc(Cl)cc1Cl` [Compound 10c, (2,4-Dichlorophenyl)methyl Amidinoisothiourea Hydrochloride]: the melting point fell in the range of 139 to 142 °C. Further, the inhibition at 20 µM on Rb:Raf-1 binding (setting [2]) was 50 to 100%. In addition, the “proliferation (S-phase entry, BrdU incorporation)” value (“proliferation” for short) in series [1] is recorded as “not inhibited”.

In the case of `N#Cc1ccc(CSC(=N)NC(=N)N)cc1` [Compound 10e, (4-Cyanophenyl)methyl Amidinoisothiourea Hydrochloride], the inhibition at 20 µM on Rb:Raf-1 binding (setting [4]) was 22%. The inhibition at 10 µM at Rb:Raf-1 binding (setting [5]) worked out at 6%.

Consider `N=C(N)SCc1ccc(Cl)c2ccccc12` [Compound 2, reference compound], for which the inhibition at 20 µM on Rb:Raf-1 binding (setting [3]) is 95%.

Turning to `Cl.N=C(N)SCc1ccc(Cl)cc1Cl` [Compound 3a, (2,4-Dichlorophenyl)methyl Isothiourea Hydrochloride], the “proliferation” value in series [1] is recorded as “not inhibited”.

Take `Cl.N=C(N)NC(=N)SCc1ccc(F)cc1F` [Compound 10b, (2,4-Difluorophenyl)methyl Amidinoisothiourea Hydrochloride]: the melting point is 144 to 146 °C. Further, the inhibition at 20 µM on Rb:Raf-1 binding (setting [2]) fell in the range of 50 to 100%. Besides, the “proliferation” value in series [1] was “not inhibited”.

With `N=C(N)SCc1ccc(F)cc1Cl` [Compound 3v, 2-Chloro-4-fluorophenyl)methyl isothiourea Hydrochloride], the inhibition at 10 µM at Rb:Raf-1 binding (setting [6]) was in the range of 50 to 100%.

On to `N=C(N)SCc1ccc(Cl)cc1[N+](=O)[O-]` [Compound 3u, (4-Chloro-2-nitrophenyl)methyl Isothiourea Hydrochloride], for which, at Rb:Raf-1 binding (setting [6]), the inhibition at 10 µM was 25 to 50%.
